Legend:
Test in all cases: cells
HCE-T = format: functional, cell-based, Homo sapiens;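 further: cell viability assay read-out, reporting inhibition of HCE-T cell growth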
Description: SANGER: Inhibition of human HCE-T cell growth in a cell viability assay.

MFM-223 = format: functional, cell-based, Homo sapiens
Description: SANGER: Inhibition of human MFM-223 cell growth in a cell viability assay.

MV4-11 = format: functional, cell-based, Homo sapiens, MV-4-11;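 further: cell viability readout measuring growth inhibition of human MV-4-11 cells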
Description: SANGER: Inhibition of human MV-4-11 cell growth in a cell viability assay.

RPMI-8226 = format: functional, cell-based, Homo sapiens
Description: SANGER: Inhibition of human RPMI-8226 cell growth in a cell viability assay.

ALL-PO = format: functional, cell-based, Homo sapiens;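 further: growth inhibition of ALL-PO cells, read out by a cell viability assay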
Description: SANGER: Inhibition of human ALL-PO cell growth in a cell viability assay.

NCI-H1355 = format: functional, cell-based, Homo sapiens;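 further: growth inhibition of human NCI-H1355 cells, read out by a cell viability assay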
Description: SANGER: Inhibition of human NCI-H1355 cell growth in a cell viability assay.

LAMA-84 = format: functional, cell-based, Homo sapiens;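 further: growth inhibition of LAMA-84 cells, read out with a cell viability assay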
Description: SANGER: Inhibition of human LAMA-84 cell growth in a cell viability assay.

ES3 = format: functional, cell-based, Homo sapiens;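 further: growth inhibition of ES3 cells, read out with a cell viability assay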
Description: SANGER: Inhibition of human ES3 cell growth in a cell viability assay.

LS-411N = format: functional, cell-based, Homo sapiens
EW-11 = format: functional, cell-based, Homo sapiens;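 further: growth inhibition of human EW-11 cells, measured with a cell viability assay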
Description: SANGER: Inhibition of human EW-11 cell growth in a cell viability assay.

DEL = format: functional, cell-based, Homo sapiens;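 further: growth inhibition of the human DEL cell line, read out with a cell viability assay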
Description: SANGER: Inhibition of human DEL cell growth in a cell viability assay.

EW-3 = format: functional, cell-based, Homo sapiens;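 further: cell viability assay read-out, IC50 reflects inhibition of growth of the EW-3 cells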
Description: SANGER: Inhibition of human EW-3 cell growth in a cell viability assay.

ETK-1 = format: functional, cell-based, Homo sapiens;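 further: growth inhibition of human ETK-1 cells, read out with a cell viability assay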
Description: SANGER: Inhibition of human ETK-1 cell growth in a cell viability assay.

NB17 = format: functional, cell-based, Homo sapiens;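 further: growth inhibition of NB17 cells, read out with a cell viability assay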
Description: SANGER: Inhibition of human NB17 cell growth in a cell viability assay.

EM-2 = format: functional, cell-based, Homo sapiens;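 further: growth inhibition of EM-2 cells, read out with a cell viability assay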
Description: SANGER: Inhibition of human EM-2 cell growth in a cell viability assay.

HCC 2998 = format: functional, cell-based, Homo sapiens;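 further: growth inhibition of human HCC2998 cells, measured with a cell viability read-out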
Description: SANGER: Inhibition of human HCC2998 cell growth in a cell viability assay.

LB2518-MEL = format: functional, cell-based, Homo sapiens;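 further: growth inhibition of human LB2518-MEL cells, measured with a cell viability assay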
Description: SANGER: Inhibition of human LB2518-MEL cell growth in a cell viability assay.

KALS-1 = format: functional, cell-based, Homo sapiens;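 further: growth inhibition of KALS-1 cells, determined with a cell viability assay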
Description: SANGER: Inhibition of human KALS-1 cell growth in a cell viability assay.

NCI-N87 = format: functional, cell-based, Homo sapiens;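 further: growth inhibition of human NCI-N87 cells, read out with a cell viability assay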
Description: SANGER: Inhibition of human NCI-N87 cell growth in a cell viability assay.

SK-N-DZ = format: functional, cell-based, Homo sapiens;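 further: growth inhibition of the cancer cell line, read out through a viability assay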
Description: SANGER: Inhibition of human SK-N-DZ cell growth in a cell viability assay.

OMC-1 = format: functional, cell-based, Homo sapiens;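 further: growth inhibition of the OMC-1 cell line, measured by a cell viability assay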
Description: SANGER: Inhibition of human OMC-1 cell growth in a cell viability assay.

KARPAS-45 = format: functional, cell-based, Homo sapiens;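 further: inhibition of cell line growth, read out through a viability assay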
Description: SANGER: Inhibition of human KARPAS-45 cell growth in a cell viability assay.

LB771-HNC = format: functional, cell-based, Homo sapiens;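 further: growth inhibition of LB771-HNC human cells, read out with a cell viability assay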
Description: SANGER: Inhibition of human LB771-HNC cell growth in a cell viability assay.

SNU-C2B = format: functional, cell-based, Homo sapiens;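 further: cell viability readout used to measure compound-driven suppression of SNU-C2B cell proliferation, IC50 marking half-maximal growth inhibition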
Description: SANGER: Inhibition of human SNU-C2B cell growth in a cell viability assay.

K5 = format: functional, cell-based, Homo sapiens
Description: SANGER: Inhibition of human K5 cell growth in a cell viability assay.

BV-173 = format: functional, cell-based, Homo sapiens
Description: SANGER: Inhibition of human BV-173 cell growth in a cell viability assay.

KGN = format: functional, cell-based, Homo sapiens;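 further: growth inhibition of KGN cells, read out with a cell viability assay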
Description: SANGER: Inhibition of human KGN cell growth in a cell viability assay.

KNS-42 = format: functional, cell-based, Homo sapiens;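 further: growth inhibition of KNS-42 cells, read out with a cell viability assay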
Description: SANGER: Inhibition of human KNS-42 cell growth in a cell viability assay.

IST-SL1 = format: functional, cell-based, Homo sapiens;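 further: growth inhibition of human IST-SL1 cells, read out with a cell viability assay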
Description: SANGER: Inhibition of human IST-SL1 cell growth in a cell viability assay.

LB831-BLC = format: functional, cell-based, Homo sapiens;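 further: growth inhibition of LB831-BLC cells, read out with a cell viability assay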
Description: SANGER: Inhibition of human LB831-BLC cell growth in a cell viability assay.

HH = format: functional, cell-based, Homo sapiens
Description: SANGER: Inhibition of human HH cell growth in a cell viability assay.

SH-4 = format: functional, cell-based, Homo sapiens;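 further: growth inhibition of SH-4 cells, read out with a cell viability assay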
Description: SANGER: Inhibition of human SH-4 cell growth in a cell viability assay.

P30-OHK = format: functional, cell-based, Homo sapiens;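 further: growth inhibition of the P30-OHK cell line, read out with a cell viability assay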
Description: SANGER: Inhibition of human P30-OHK cell growth in a cell viability assay.

NMC-G1 = format: functional, cell-based, Homo sapiens;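 further: growth inhibition of the NMC-G1 cell line, measured with a cell viability read-out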
Description: SANGER: Inhibition of human NMC-G1 cell growth in a cell viability assay.

JVM-2 = format: functional, cell-based, Homo sapiens;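 further: growth inhibition of JVM-2 cells determined by a cell viability assay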
Description: SANGER: Inhibition of human JVM-2 cell growth in a cell viability assay.

NCI-H526 = format: functional, cell-based, Homo sapiens;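 further: growth inhibition of the human NCI-H526 cell line, measured by a cell viability assay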
Description: SANGER: Inhibition of human NCI-H526 cell growth in a cell viability assay.

MS-1 = format: functional, cell-based, Homo sapiens
Description: SANGER: Inhibition of human MS-1 cell growth in a cell viability assay.

D-502MG = format: functional, cell-based, Homo sapiens
Description: SANGER: Inhibition of human D-502MG cell growth in a cell viability assay.

MN-60 = format: functional, cell-based, Homo sapiens;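 further: growth inhibition of the MN-60 cell line, determined with a cell viability assay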
Description: SANGER: Inhibition of human MN-60 cell growth in a cell viability assay.

JVM-3 = format: functional, cell-based, Homo sapiens;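 further: growth inhibition of human JVM-3 cells, read out with a cell viability assay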
Description: SANGER: Inhibition of human JVM-3 cell growth in a cell viability assay.

RH-1 = format: functional, cell-based, Homo sapiens;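 further: growth inhibition of human RH-1 cells, read out with a cell viability assay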
Description: SANGER: Inhibition of human RH-1 cell growth in a cell viability assay.

ATN-1 = format: functional, cell-based, Homo sapiens;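 further: growth inhibition of human ATN-1 cells, read out with a cell viability assay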
Description: SANGER: Inhibition of human ATN-1 cell growth in a cell viability assay.

C2BBe1 = format: functional, cell-based, Homo sapiens;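 further: growth inhibition of C2BBe1 cells, read out through a viability assay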
Description: SANGER: Inhibition of human C2BBe1 cell growth in a cell viability assay.

DMS-114 = format: functional, cell-based, Homo sapiens
CAS-1 = format: functional, cell-based, Homo sapiens;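 further: growth inhibition of CAS-1 cells, measured with a cell viability assay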
Description: SANGER: Inhibition of human CAS-1 cell growth in a cell viability assay.

LS-513 = format: functional, cell-based, Homo sapiens
Description: SANGER: Inhibition of human LS-513 cell growth in a cell viability assay.

EW-13 = format: functional, cell-based, Homo sapiens;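 further: growth inhibition of EW-13 cells, read out with a cell viability assay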
Description: SANGER: Inhibition of human EW-13 cell growth in a cell viability assay.

DOHH-2 = format: functional, cell-based, Homo sapiens;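 further: growth inhibition of human DOHH-2 cells, read out with a cell viability assay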
Description: SANGER: Inhibition of human DOHH-2 cell growth in a cell viability assay.

SK-NEP-1 = format: functional, cell-based, Homo sapiens;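 further: growth inhibition of human SK-NEP-1 cells, read out by a cell viability assay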
Description: SANGER: Inhibition of human SK-NEP-1 cell growth in a cell viability assay.

In the case of CISPLATIN, the IC50 (HCE-T; hce-t) is reported as 7.9 µM, the IC50 (MFM-223; mfm-223) is reported as 615 µM and the IC50 (MV4-11; mv-4-11) is reported as 3.46 µM. For the same compound, the IC50 (RPMI-8226; rpmi-8226) was 192 µM, the IC50 (ALL-PO; all-po) was 31.1 µM and the IC50 (NCI-H1355; nci-h1355) was 6.63 µM. The IC50 (LAMA-84; lama-84) was 10.8 µM, the IC50 (ES3; es3) was 0.863 µM and the IC50 (LS-411N; ls-411n) was 66.4 µM. It also gave an IC50 (EW-11; ew-11) of 21 µM, an IC50 (DEL; del) of 3.67 µM and an IC50 (EW-3; ew-3) of 1.6 µM. For the same compound, the IC50 (ETK-1; etk-1) was 49.8 µM, the IC50 (NB17; nb17) was 69.4 µM and the IC50 (EM-2; em-2) was 71.2 µM. For the same compound, the IC50 (HCC 2998; hcc 2998) was 271 µM, the IC50 (LB2518-MEL; lb2518-mel) was 116 µM and the IC50 (KALS-1; kals-1) was 71.1 µM. It also gave an IC50 (NCI-N87; nci-n87) of 33 µM, an IC50 (SK-N-DZ; sk-n-dz) of 26.8 µM and an IC50 (OMC-1; omc-1) of 12.6 µM. The IC50 (KARPAS-45; karpas-45) was 361 µM, the IC50 (LB771-HNC; lb771-hnc) was 89.8 µM and the IC50 (SNU-C2B; snu-c2b) was 38.4 µM. The IC50 (K5; k5) was 3.73 µM, the IC50 (BV-173; bv-173) was 42.1 µM and the IC50 (KGN; kgn) was 17.6 µM. It also gave an IC50 (KNS-42; kns-42) of 20.5 µM, an IC50 (IST-SL1; ist-sl1) of 70.6 µM and an IC50 (LB831-BLC; lb831-blc) of 225 µM. For the same compound, the IC50 (HH; hh) was 22.5 µM, the IC50 (SH-4; sh-4) was 68.7 µM and the IC50 (P30-OHK; p30-ohk) was 2.71 µM. For the same compound, the IC50 (NMC-G1; nmc-g1) was 14.5 µM, the IC50 (JVM-2; jvm-2) was 568 µM and the IC50 (NCI-H526; nci-h526) was 2.06 µM. For the same compound, the IC50 (MS-1; ms-1) was 14.1 µM, the IC50 (D-502MG; d-502mg) was 33.1 µM and the IC50 (MN-60; mn-60) was 58.4 µM. It also gave an IC50 (JVM-3; jvm-3) of 39.7 µM, an IC50 (RH-1; rh-1) of 333 µM and an IC50 (ATN-1; atn-1) of 18.6 µM. The IC50 (C2BBe1; c2bbe1) was 97 µM, the IC50 (DMS-114; dms-114) was 19.6 µM and the IC50 (CAS-1; cas-1) was 116 µM. The IC50 (LS-513; ls-513) was 61.6 µM, the IC50 (EW-13; ew-13) was 4.17 µM and the IC50 (DOHH-2; dohh-2) was 4.23 µM. For the same compound, the IC50 (SK-NEP-1; sk-nep-1) was 7.18 µM.

`COc1cc2c(Nc3ccc(NC(=O)c4ccccc4)cc3)ncnc2cc1OCCCN1CCOCC1` was tested, and the IC50 (HCE-T; Homo sapiens, HCE-T) was greater than 4 µM, the IC50 (MFM-223; Homo sapiens, MFM-223) was greater than 4 µM and the IC50 (MV4-11; Homo sapiens, MV4-11) was 0.796 µM. The IC50 (RPMI-8226; Homo sapiens, RPMI-8226) was greater than 4 µM, the IC50 (ALL-PO; Homo sapiens, ALL-PO) was 2.67 µM and the IC50 (NCI-H1355; Homo sapiens, NCI-H1355) was greater than 4 µM. For the same compound, the IC50 (LAMA-84; Homo sapiens, LAMA-84) was 1.76 µM, the IC50 (ES3; Homo sapiens, ES3) was 0.473 µM and the IC50 (LS-411N; Homo sapiens, LS-411N) was greater than 4 µM. It also gave an IC50 (EW-11; Homo sapiens, EW-11) greater than 4 µM, an IC50 (DEL; Homo sapiens, DEL) of 2.75 µM and an IC50 (EW-3; Homo sapiens, EW-3) greater than 4 µM. For the same compound, the IC50 (ETK-1; Homo sapiens, ETK-1) was greater than 4 µM, the IC50 (NB17; Homo sapiens, NB17) was greater than 4 µM and the IC50 (EM-2; Homo sapiens, EM-2) was 1.42 µM. The IC50 (HCC 2998; Homo sapiens, HCC 2998) was greater than 4 µM, the IC50 (LB2518-MEL; Homo sapiens, LB2518-MEL) was greater than 4 µM and the IC50 (KALS-1; Homo sapiens, KALS-1) was greater than 4 µM. For the same compound, the IC50 (NCI-N87; Homo sapiens, NCI-N87) was greater than 4 µM, the IC50 (SK-N-DZ; Homo sapiens, SK-N-DZ) was greater than 4 µM and the IC50 (OMC-1; Homo sapiens, OMC-1) was greater than 4 µM. It also gave an IC50 (KARPAS-45; Homo sapiens, KARPAS-45) of 0.381 µM, an IC50 (LB771-HNC; Homo sapiens, LB771-HNC) greater than 4 µM and an IC50 (SNU-C2B; Homo sapiens, SNU-C2B) greater than 4 µM. The IC50 (K5; Homo sapiens, K5) was greater than 4 µM, the IC50 (BV-173; Homo sapiens, BV-173) was 1.76 µM and the IC50 (KGN; Homo sapiens, KGN) was greater than 4 µM. The IC50 (KNS-42; Homo sapiens, KNS-42) was greater than 4 µM, the IC50 (IST-SL1; Homo sapiens, IST-SL1) was 1.32 µM and the IC50 (LB831-BLC; Homo sapiens, LB831-BLC) was greater than 4 µM. For the same compound, the IC50 (HH; Homo sapiens, HH) was greater than 4 µM, the IC50 (SH-4; Homo sapiens, SH-4) was greater than 4 µM and the IC50 (P30-OHK; Homo sapiens, P30-OHK) was greater than 4 µM. It also gave an IC50 (NMC-G1; Homo sapiens, NMC-G1) greater than 4 µM, an IC50 (JVM-2; Homo sapiens, JVM-2) greater than 4 µM and an IC50 (NCI-H526; Homo sapiens, NCI-H526) greater than 4 µM. For the same compound, the IC50 (MS-1; Homo sapiens, MS-1) was greater than 4 µM, the IC50 (D-502MG; Homo sapiens, D-502MG) was 3.97 µM and the IC50 (MN-60; Homo sapiens, MN-60) was greater than 4 µM. It also gave an IC50 (JVM-3; Homo sapiens, JVM-3) of 2.75 µM, an IC50 (RH-1; Homo sapiens, RH-1) greater than 4 µM and an IC50 (ATN-1; Homo sapiens, ATN-1) greater than 4 µM. It also gave an IC50 (C2BBe1; Homo sapiens, C2BBe1) greater than 4 µM, an IC50 (DMS-114; Homo sapiens, DMS-114) greater than 4 µM and an IC50 (CAS-1; Homo sapiens, CAS-1) greater than 4 µM. The IC50 (LS-513; Homo sapiens, LS-513) was greater than 4 µM, the IC50 (EW-13; Homo sapiens, EW-13) was greater than 4 µM and the IC50 (DOHH-2; Homo sapiens, DOHH-2) was 1.4 µM. For the same compound, the IC50 (SK-NEP-1; Homo sapiens, SK-NEP-1) was 1.36 µM.

Source: ChEMBL document CHEMBL1201861, “Genomics of Drug Sensitity in Cancer screening data, Wellcome Trust Sanger Institute”
